Activity calls are given as the source filed them. The rule behind the calls is not given here.
Tests used:
[1] = AUC(0 to t) in male Sprague-Dawley rat at 2 mg/kg, iv measured upto 24 hrs by LC-MS/MS analysis; assay type: ADME, organism-based; details: in vivo
[2] = Acute toxicity in male Kunming mouse assessed as death at 1000 mg/kg, IG administered via gavage; assay type: organism-based; details: in vivo, po
[3] = tested on: Human immunodeficiency virus 1; assay: Induction of HIV-1 CA-NC assessed as capsid assembly at 10 uM by FRET analysis; details: filed as modulator
[4] = Half life in male Sprague-Dawley rat at 2 mg/kg, iv measured upto 24 hrs by LC-MS/MS analysis; assay type: ADME, organism-based; details: in vivo
[5] = target: Structural capsid protein (Human immunodeficiency virus 1) (UniProt Q76129); assay: Binding affinity to HIV-1 hexameric capsid protein assessed as reduction in CPSF6 binding to capsid protein by competition assay based SPR analysis; details: filed as modulator
Chain of Structural capsid protein (Human immunodeficiency virus 1) (Q76129 as listed by the source): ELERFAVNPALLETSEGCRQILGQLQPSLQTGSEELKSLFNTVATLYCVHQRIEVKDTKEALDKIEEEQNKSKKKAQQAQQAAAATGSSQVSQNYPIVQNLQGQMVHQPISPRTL

[6] = Selectivity ratio of EC50 for wild type HIV-1 IIIB infected in human MT4 cells to EC50 for HIV-2 ROD infected in human MT-4 cells assessed as protection against virus-induced cytopathic effect incubated for 5 days by spectrophotometric based MTT assay; assay type: functional; details: time 5 day
[7] = target: Human immunodeficiency virus type 1 reverse transcriptase (Human immunodeficiency virus 1) (UniProt Q72547); assay: Inhibition of HIV1 reverse transcriptase at 6 nM incubated for 1 hr by ELISA analysis
[8] = Subacute toxicity in male Kunming mouse assessed as convulsion at 50 mg/kg, po administered every other day for 14 days; assay type: organism-based; details: in vivo, 336 h, time 14 day
[9] = Acute toxicity in female Kunming mouse assessed as body weight gain at 1000 mg/kg, IG administered via gavage; assay type: organism-based; details: in vivo, po
[10] = Acute toxicity in female Kunming mouse assessed as anorexia at 1000 mg/kg, IG administered via gavage; assay type: organism-based; details: in vivo, po
[11] = Clearance in male Sprague-Dawley rat at 2 mg/kg, iv measured upto 24 hrs by LC-MS/MS analysis; assay type: ADME, organism-based; details: in vivo
[12] = Acute toxicity in male Kunming mouse assessed as anorexia at 1000 mg/kg, IG administered via gavage; assay type: organism-based; details: in vivo, po
[13] = MRT(0 to infinity) in male Sprague-Dawley at 10 mg/kg, sc measured upto 24 hrs by LC-MS/MS analysis; assay type: ADME, organism-based; details: rat, in vivo
[14] = C0 in male Sprague-Dawley rat at 2 mg/kg, iv measured upto 24 hrs by LC-MS/MS analysis; assay type: ADME, organism-based; details: in vivo
[15] = tested on: MT4; assay: Cytotoxicity against human MT4 cells assessed as reduction in cell viability incubated for 5 days by spectrophotometric based MTT assay; assay type: functional; details: MT4, 120 h, time 5 day
[16] = Subacute toxicity in male Kunming mouse assessed as body jerks at 50 mg/kg, po administered every other day for 14 days; assay type: organism-based; details: in vivo, 336 h, time 14 day
[17] = AUC(0 to t) in male Sprague-Dawley rat at 10 mg/kg, sc measured upto 24 hrs by LC-MS/MS analysis; assay type: ADME, organism-based; details: in vivo
[18] = Apparent volume of distribution in male Sprague-Dawley rat at 2 mg/kg, iv measured upto 24 hrs by LC-MS/MS analysis; assay type: ADME, organism-based; details: in vivo, read-out: Vz
[19] = MRT(0 to infinity) in male Sprague-Dawley rat at 2 mg/kg, iv measured upto 24 hrs by LC-MS/MS analysis; assay type: ADME, organism-based; details: in vivo
[20] = Metabolic stability in human liver microsomes assessed as half life at 1 uM incubated for 60 mins by LC-MS/MS analysis; assay type: ADME, Microsome
[21] = MRT(0 to t) in male Sprague-Dawley rat at 2 mg/kg, iv measured upto 24 hrs by LC-MS/MS analysis; assay type: ADME, organism-based; details: in vivo
[22] = Acute toxicity in male Kunming mouse assessed as convulsion at 1000 mg/kg, IG administered via gavage; assay type: organism-based; details: in vivo, po
[23] = tested on: Human immunodeficiency virus 1; assay: Antiviral activity against pseudotyped HIV-1 expressing luciferase-reporter transfected in HEK293T cells assessed as viral inhibition at late stage incubated for 48 hrs by Single-round infection assay; assay type: functional, organism-based
[24] = Acute toxicity in male Kunming mouse assessed as sedation at 1000 mg/kg, IG administered via gavage; assay type: organism-based; details: in vivo, po
[25] = Acute toxicity in female Kunming mouse assessed as convulsion at 1000 mg/kg, IG administered via gavage; assay type: organism-based; details: in vivo, po
[26] = Metabolic stability in human liver microsomes assessed as intrinsic clearance at 1 uM incubated for 60 mins by LC-MS/MS analysis; assay type: ADME, Microsome; details: read-out: CLH
[27] = Subacute toxicity in male Kunming mouse assessed as hypoactivity at 50 mg/kg, po administered every other day for 14 days; assay type: organism-based; details: in vivo, 336 h, time 14 day
[28] = Cmax in male Sprague-Dawley rat at 10 mg/kg, sc measured upto 24 hrs by LC-MS/MS analysis; assay type: ADME, organism-based; details: in vivo
[29] = Subacute toxicity in male Kunming mouse assessed as tremor at 50 mg/kg, po administered every other day for 14 days; assay type: organism-based; details: in vivo, 336 h, time 14 day
[30] = target: Structural capsid protein (Human immunodeficiency virus 1, UniProt Q76129); assay: Binding affinity to monomeric HIV-1 NL4.3 capsid protein assessed as dissociation constant by SPR assay
Chain of Structural capsid protein (Q76129 whole entry): as the sequence (Q76129 as listed by the source) above

[31] = Subacute toxicity in male Kunming mouse assessed as pathological damage in spleen at 50 mg/kg, po administered every other day for 14 days by H and E staining based analysis; assay type: organism-based; details: in vivo, 336 h, time 14 day
[32] = Subacute toxicity in male Kunming mouse assessed as pathological damage in kidney at 50 mg/kg, po administered every other day for 14 days by H and E staining based analysis; assay type: organism-based; details: in vivo, 336 h, time 14 day
[33] = MRT(0 to t) in male Sprague-Dawley rat at 10 mg/kg, sc measured upto 24 hrs by LC-MS/MS analysis; assay type: ADME, organism-based; details: in vivo
[34] = Subacute toxicity in male Kunming mouse assessed as animal death at 50 mg/kg, po administered every other day for 14 days; assay type: organism-based; details: in vivo, 336 h, time 14 day
[35] = Selectivity index, ratio of CC50 for human MT4 cells to EC50 for HIV-2 ROD infected in human MT-4 cells; assay type: toxicity, cell-based; details: read-out: Selectivity Index
[36] = AUC(0 to infinity) in male Sprague-Dawley rat at 10 mg/kg, sc measured upto 24 hrs by LC-MS/MS analysis; assay type: ADME, organism-based; details: in vivo
[37] = Selectivity index, ratio of CC50 for human MT4 cells to EC50 for wild type HIV-1 IIIB infected in human MT4 cells; assay type: toxicity, cell-based; details: read-out: Selectivity Index
[38] = Subacute toxicity in male Kunming mouse assessed as piloerection at 50 mg/kg, po administered every other day for 14 days; assay type: organism-based; details: in vivo, 336 h, time 14 day
[39] = tested on: Human immunodeficiency virus 2; assay: Anti-HIV activity against HIV-2 ROD infected in human MT-4 cells assessed as protection against virus-induced cytopathic effect incubated for 5 days by spectrophotometric based MTT assay; assay type: functional, organism-based; details: Human immunodeficiency virus 2, ROD, MT4, 120 h
[40] = Tmax in male Sprague-Dawley rat at 2 mg/kg, iv measured upto 24 hrs by LC-MS/MS analysis; assay type: ADME, organism-based; details: in vivo
[41] = Acute toxicity in female Kunming mouse assessed as sedation at 1000 mg/kg, IG administered via gavage; assay type: organism-based; details: in vivo, po
[42] = Subacute toxicity in male Kunming mouse assessed as focal lymphocyte infiltration in liver at 50 mg/kg, po administered every other day for 14 days by H and E staining based analysis; assay type: organism-based; details: in vivo, 336 h, time 14 day
[43] = AUC(0 to infinity) in male Sprague-Dawley rat at 2 mg/kg, iv measured upto 24 hrs by LC-MS/MS analysis; assay type: ADME, organism-based; details: in vivo

Q: With `CN(C(=O)[C@H](Cc1cc(F)cc(F)c1)NC(=O)Cc1c[nH]c2ccc(O)cc12)c1ccc2scnc2c1` as the molecule, how does the AUC(0-t) at 24 h [1] read?
A: 5.53 ng·h/mL

Q: And the Activity [2]?
A: Non-toxic

Q: And the Activity [3]?
A: Active

Q: And the half-life [4]?
A: 11.9 min

Q: What about the Activity [5] of the same molecule?
A: Active

Q: What about the “Ratio EC50” value [6] of the same molecule?
A: 0.03

Q: And the inhibition [7]?
A: inactive

Q: What about the Activity [8] of the same molecule?
A: Non-toxic

Q: And the Activity [9]?
A: Non-toxic

Q: And the Activity [10]?
A: Non-toxic

Q: And the CL [11]?
A: 4712.52 mL/min/kg

Q: And the Activity [12]?
A: Non-toxic

Q: And the MRT inf [13]?
A: 351 min

Q: And the C0 at 24 h [14]?
A: 33.7 ng/mL

Q: And the CC50 [15]?
A: 133000 nM

Q: And the Activity [16]?
A: Non-toxic

Q: What about the AUC(0-t) at 24 h [17] of the same molecule?
A: 23.3 ng·h/mL

Q: And the Vd [18]?
A: 72.9 L/kg

Q: And the MRT inf [19]?
A: 12.1 min

Q: What about the half-life at 1 µM [20] of the same molecule?
A: 91.3 min

Q: What about the MRT last at 24 h [21] of the same molecule?
A: 7.74 min

Q: What about the Activity [22] of the same molecule?
A: Non-toxic

Q: What about the Activity [23] of the same molecule?
A: Active

Q: And the Activity [24]?
A: Non-toxic

Q: And the Activity [25]?
A: Non-toxic

Q: What about the CLint scaled at 1 µM [26] of the same molecule?
A: 15.2 mL/min/kg

Q: What about the Activity [27] of the same molecule?
A: Non-toxic

Q: What about the Cmax [28] of the same molecule?
A: 4.99 ng/mL

Q: What about the Activity [29] of the same molecule?
A: Non-toxic

Q: What about the Kd [30] of the same molecule?
A: 81.1 nM

Q: And the Activity [31]?
A: Non-toxic

Q: What about the Activity [32] of the same molecule?
A: Non-toxic

Q: What about the MRT last at 24 h [33] of the same molecule?
A: 182 min

Q: And the Activity [34]?
A: Non-toxic

Q: What about the selectivity ratio [35] of the same molecule?
A: 1360

Q: What about the AUC(0-inf) [36] of the same molecule?
A: 33.6 ng·h/mL

Q: What about the selectivity ratio [37] of the same molecule?
A: 49400

Q: And the Activity [38]?
A: Non-toxic

Q: And the EC50 [39]?
A: 98 nM

Q: And the Tmax [40]?
A: 4.98 min

Q: And the Activity [41]?
A: Non-toxic

Q: And the Activity [42]?
A: Toxic

Q: What about the AUC(0-inf) [43] of the same molecule?
A: 7.77 ng·h/mL

Reference: ChEMBL document CHEMBL6083251, “"Pseudosubstrate Envelope"/Free Energy Perturbation-Guided Design and Mechanistic Investigations of Benzothiazole HIV Capsid Modulators with High Ligand Efficiency” (J Med Chem, 2024)
